Assays:
Assay type in all cases: in vivo
Leptochloa chinensis = test: Test Example 3: herbicidal effect by application to foliage (Wagner pot, water depth 0.1-0.5 cm); details: Nineteenth Table; application to foliage; application herbicide amount 320 g/ha
Summary of the method: (§1)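 Foliar spray, 14-day-old plants, emulsion diluted to target g/ha; rated 3 wk post-application, 0–5 scale (0 ≤5%, 5 ≥90% herbicidal ratio). Greenhouse 25–30 °C, alluvial soil.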

[1] = test system: Echinochloa crus-galli var. crus-galli; test: as above; details: Nineteenth Table; application to foliage; application herbicide amount 320 g/ha
Summary of the method: as §1

Cyperus difformis = test: as above; details: Nineteenth Table; application to foliage; application herbicide amount 320 g/ha
Summary of the method: as §1

[2] = test system: directly sowed Oryza sativa; test: Test Example 3: effect on crop by application to foliage (Wagner pot, water depth 0.1-0.5 cm); details: Nineteenth Table; application to foliage; application herbicide amount 320 g/ha
Summary of the method: as §1

Brassica campestris L. = test: Test Example 4: effect on crop by application to foliage (diluvial soil, plastic box); details: for g (Brassica campestris L.) effect on crop grade: Application herbicide amount 320 g/ha, foliage application
Summary of the method: (§2)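 Scores run from 0 (herbicidal ratio ≤5%) to 5 (≥90%, almost fully withered) and were assessed three weeks after foliar spraying. Seedlings had been raised for 14 days at 25-30° C in sterilized diluvial soil before treatment, with the emulsion diluted in water to the stated g/ha dose.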

Glycine max = test: as above; details: for d (Glycine max) effect on crop grade: Application herbicide amount 320 g/ha, foliage application
Summary of the method: as §2

Triticum aestivum = test: as above; details: for e (Triticum aestivum) effect on crop grade: Application herbicide amount 320 g/ha, foliage application
Summary of the method: as §2

[3] = test system: Beta vulgaris ssp. vulgaris; test: as above; details: for f (Beta vulgaris ssp. vulgaris) effect on crop grade: Application herbicide amount 320 g/ha, foliage application
Summary of the method: as §2

Zea mays = test: as above; details: for c (Zea mays) effect on crop grade: Application herbicide amount 320 g/ha, foliage application
Summary of the method: as §2

[4] = test system: directly sowed Oryza sativa; test: as above
Summary of the method: as §2

Alopecurus myosuroides = test: Test Example 4: herbicidal effect by application to foliage (diluvial soil, plastic box); details: for J (Alopecurus myosuroides) herbicidal effect grade: Application herbicide amount 320 g/ha, foliage application
Summary of the method: as §2

Stellaria media = test: as above; details: for P (Stellaria media) herbicidal effect grade: Application herbicide amount 320 g/ha, foliage application
Summary of the method: as §2

Galium spurium = test: as above; details: Application herbicide amount 320 g/ha; foliage application
Summary of the method: as §2

Lolium multiflorum Lam. = test: as above; details: for K (Lolium multiflorum Lam.) herbicidal effect grade: Application herbicide amount 320 g/ha, foliage application
Summary of the method: as §2

[5] = test system: Echinochloa crus-galli var. crus-galli; test: as above; details: for H (Echinochloa crus-galli var. crus-galli) herbicidal effect grade: Application herbicide amount 320 g/ha, foliage application
Summary of the method: as §2

Amaranthus retroflexus = test: as above; details: for N (Amaranthus retroflexus) herbicidal effect grade: Application herbicide amount 320 g/ha, foliage application
Summary of the method: as §2

Digitaria ciliaris = test: as above; details: for F (Digitaria ciliaris) herbicidal effect grade: Application herbicide amount 320 g/ha, foliage application
Summary of the method: as §2

Avena fatua = test: as above; details: for I (Avena fatua) herbicidal effect grade: Application herbicide amount 320 g/ha, foliage application
Summary of the method: as §2

Chenopodium album = test: as above; details: for O (Chenopodium album) herbicidal effect grade: Application herbicide amount 320 g/ha, foliage application
Summary of the method: as §2

Apera spica-venti. = test: as above; details: for L (Apera spica-venti.) herbicidal effect grade: Application herbicide amount 320 g/ha, foliage application
Summary of the method: as §2

Veronica persica = test: as above; details: for R (Veronica persica) herbicidal effect grade: Application herbicide amount 320 g/ha, foliage application
Summary of the method: as §2

Setaria viridis = test: as above; details: for G (Setaria viridis) herbicidal effect grade: Application herbicide amount 320 g/ha, foliage application
Summary of the method: as §2

Abutilon theophrasti = test: as above; details: for M (Abutilon theophrasti) herbicidal effect grade: Application herbicide amount 320 g/ha, foliage application
Summary of the method: as §2

[6] = application to foliage, application herbicide amount 320 g/ha

Compound | D (herbicidal effect grade) (Leptochloa chinensis) | H (herbicidal effect grade) [1] | E (herbicidal effect grade) (Cyperus difformis) | b (effect on crop grade) [2] | g (Brassica campestris L.) effect on crop grade (Brassica campestris L.) | d (Glycine max) effect on crop grade (Glycine max) | e (Triticum aestivum) effect on crop grade (Triticum aestivum) | f (Beta vulgaris ssp. vulgaris) effect on crop grade [3] | c (Zea mays) effect on crop grade (Zea mays) | J (Alopecurus myosuroides) herbicidal effect grade (Alopecurus myosuroides) | P (Stellaria media) herbicidal effect grade (Stellaria media) | Q (Galium spurium) herbicidal effect grade (Galium spurium) | K (Lolium multiflorum Lam.) herbicidal effect grade (Lolium multiflorum Lam.) | H (Echinochloa crus-galli var. crus-galli) herbicidal effect grade [5] | N (Amaranthus retroflexus) herbicidal effect grade (Amaranthus retroflexus) | F (Digitaria ciliaris) herbicidal effect grade (Digitaria ciliaris) | I (Avena fatua) herbicidal effect grade (Avena fatua) | O (Chenopodium album) herbicidal effect grade (Chenopodium album) | L (Apera spica-venti.) herbicidal effect grade (Apera spica-venti.) | R (Veronica persica) herbicidal effect grade (Veronica persica) | further results
Cc1nnc(NC(=O)c2ccc(C(F)(F)F)n3c(C4(C)CC4(Cl)Cl)nnc23)o1 (centres unmarked) [1-105] | 5 (Herbicidal ratio of 90% or more (almost completely withered)) | 5 (Herbicidal ratio of 90% or more (almost completely withered)) | 5 (Herbicidal ratio of 90% or more (almost completely withered)) | 0 (Herbicidal ratio of 5% or less (almost no effect)) | 3 (Herbicidal ratio of 40% or more and less than 70%) | 2 (Herbicidal ratio of 20% or more and less than 40%) | 1 (Herbicidal ratio of 5% or more and less than 20%) | 4 (Herbicidal ratio of 70% or more and less than 90%) | 1 (Herbicidal ratio of 5% or more and less than 20%) | 1 (Herbicidal ratio of 5% or more and less than 20%) | 4 (Herbicidal ratio of 70% or more and less than 90%) | 1 (Herbicidal ratio of 5% or more and less than 20%) | 1 (Herbicidal ratio of 5% or more and less than 20%) | 4 (Herbicidal ratio of 70% or more and less than 90%) | 3 (Herbicidal ratio of 40% or more and less than 70%) | 4 (Herbicidal ratio of 70% or more and less than 90%) | 1 (Herbicidal ratio of 5% or more and less than 20%) | 5 (Herbicidal ratio of 90% or more (almost completely withered)) | 1 (Herbicidal ratio of 5% or more and less than 20%) | 3 (Herbicidal ratio of 40% or more and less than 70%) | b (directly sowed Oryza sativa) effect on crop grade ([4]; Application herbicide amount 320 g/ha, foliage application): 0 (Herbicidal ratio of 5% or less (almost no effect)); G (Setaria viridis) herbicidal effect grade (Setaria viridis): 1 (Herbicidal ratio of 5% or more and less than 20%); M (Abutilon theophrasti) herbicidal effect grade (Abutilon theophrasti): 3 (Herbicidal ratio of 40% or more and less than 70%)
O=C(Nc1nnco1)c1ccc(C(F)(F)F)n2c(N3CCCC3)nnc12 [1-139] | 5 (Herbicidal ratio of 90% or more (almost completely withered)) | 4 (Herbicidal ratio of 70% or more and less than 90%) | 5 (Herbicidal ratio of 90% or more (almost completely withered)) | 1 (Herbicidal ratio of 5% or more and less than 20%) | 4 (Herbicidal ratio of 70% or more and less than 90%) | 3 (Herbicidal ratio of 40% or more and less than 70%) | 1 (Herbicidal ratio of 5% or more and less than 20%) | 5 (Herbicidal ratio of 90% or more (almost completely withered)) | 0 (Herbicidal ratio of 5% or less (almost no effect)) | 0 (Herbicidal ratio of 5% or less (almost no effect)) | 5 (Herbicidal ratio of 90% or more (almost completely withered)) | 2 (Herbicidal ratio of 20% or more and less than 40%) | 1 (Herbicidal ratio of 5% or more and less than 20%) | 5 (Herbicidal ratio of 90% or more (almost completely withered)) | 4 (Herbicidal ratio of 70% or more and less than 90%) | 5 (Herbicidal ratio of 90% or more (almost completely withered)) | 1 (Herbicidal ratio of 5% or more and less than 20%) | 5 (Herbicidal ratio of 90% or more (almost completely withered)) | 0 (Herbicidal ratio of 5% or less (almost no effect)) | 5 (Herbicidal ratio of 90% or more (almost completely withered)) | G (Setaria viridis) herbicidal effect grade (Setaria viridis): 3 (Herbicidal ratio of 40% or more and less than 70%); M (Abutilon theophrasti) herbicidal effect grade (Abutilon theophrasti): 3 (Herbicidal ratio of 40% or more and less than 70%)
CC(C)c1nnc2c(C(=O)Nc3nnc(C[S+](C)[O-])o3)ccc(C(F)(F)F)n12 (centres unmarked) [1-143] | 2 (Herbicidal ratio of 20% or more and less than 40%) | 4 (Herbicidal ratio of 70% or more and less than 90%) | 4 (Herbicidal ratio of 70% or more and less than 90%) | 0 (Herbicidal ratio of 5% or less (almost no effect)) | 3 (Herbicidal ratio of 40% or more and less than 70%) | 1 (Herbicidal ratio of 5% or more and less than 20%) | 0 (Herbicidal ratio of 5% or less (almost no effect)) | 2 (Herbicidal ratio of 20% or more and less than 40%) | 0 (Herbicidal ratio of 5% or less (almost no effect)) | 0 (Herbicidal ratio of 5% or less (almost no effect)) | 3 (Herbicidal ratio of 40% or more and less than 70%) | 2 (Herbicidal ratio of 20% or more and less than 40%) | 0 (Herbicidal ratio of 5% or less (almost no effect)) | 4 (Herbicidal ratio of 70% or more and less than 90%) | 2 (Herbicidal ratio of 20% or more and less than 40%) | 2 (Herbicidal ratio of 20% or more and less than 40%) | 0 (Herbicidal ratio of 5% or less (almost no effect)) | 4 (Herbicidal ratio of 70% or more and less than 90%) | 0 (Herbicidal ratio of 5% or less (almost no effect)) | 3 (Herbicidal ratio of 40% or more and less than 70%) | G (Setaria viridis) herbicidal effect grade (Setaria viridis): 0 (Herbicidal ratio of 5% or less (almost no effect)); M (Abutilon theophrasti) herbicidal effect grade (Abutilon theophrasti): 2 (Herbicidal ratio of 20% or more and less than 40%)
CC(C)c1nnc2c(C(=O)N(C)c3nnnn3C)ccc(C(F)(F)F)n12 [2-023] | 1 (Herbicidal ratio of 5% or more and less than 20%) | 4 (Herbicidal ratio of 70% or more and less than 90%) | 0 (Herbicidal ratio of 5% or less (almost no effect)) | 1 (Herbicidal ratio of 5% or more and less than 20%) |  |  |  |  |  |  |  |  |  |  |  |  |  |  |  |  | g: effect on crop, Brassica campestris L. (Brassica campestris L.; [6]): 1 (Herbicidal ratio of 5% or more and less than 20%); d: effect on crop, Glycine max (Glycine max; [6]): 1 (Herbicidal ratio of 5% or more and less than 20%); e: effect on crop, Triticum aestivum (Triticum aestivum; [6]): 0 (Herbicidal ratio of 5% or less (almost no effect)); f: effect on crop, Beta vulgaris ssp. vulgaris [3, 6]: 4 (Herbicidal ratio of 70% or more and less than 90%); c: effect on crop, Zea mays (Zea mays; [6]): 0 (Herbicidal ratio of 5% or less (almost no effect)); b: effect on crop, directly sowed Oryza sativa [4, 6]: 0 (Herbicidal ratio of 5% or less (almost no effect)); J: herbicidal effect on Alopecurus myosuroides (Alopecurus myosuroides; [6]): 0 (Herbicidal ratio of 5% or less (almost no effect)); P: herbicidal effect on Stellaria media (Stellaria media; [6]): 3 (Herbicidal ratio of 40% or more and less than 70%); K: herbicidal effect on Lolium multiflorum Lam. (Lolium multiflorum Lam.; [6]): 0 (Herbicidal ratio of 5% or less (almost no effect)); H: herbicidal effect on Echinochloa crus-galli var. crus-galli [5, 6]: 4 (Herbicidal ratio of 70% or more and less than 90%); N: herbicidal effect on Amaranthus retroflexus (Amaranthus retroflexus; [6]): 5 (Herbicidal ratio of 90% or more (almost completely withered)); F: herbicidal effect on Digitaria ciliaris (Digitaria ciliaris; [6]): 1 (Herbicidal ratio of 5% or more and less than 20%); I: herbicidal effect on Avena fatua (Avena fatua; [6]): 0 (Herbicidal ratio of 5% or less (almost no effect)); O: herbicidal effect on Chenopodium album (Chenopodium album; [6]): 4 (Herbicidal ratio of 70% or more and less than 90%); L: herbicidal effect on Apera spica-venti. (Apera spica-venti.; [6]): 0 (Herbicidal ratio of 5% or less (almost no effect)); R: herbicidal effect on Veronica persica (Veronica persica; [6]): 4 (Herbicidal ratio of 70% or more and less than 90%); G: herbicidal effect on Setaria viridis (Setaria viridis; [6]): 1 (Herbicidal ratio of 5% or more and less than 20%); M: herbicidal effect on Abutilon theophrasti (Abutilon theophrasti; [6]): 3 (Herbicidal ratio of 40% or more and less than 70%)

Reference: patent US9708314B2, “Heterocyclic amide compound” (NISSAN CHEMICAL INDUSTRIES, LTD., priority 2013, dated 2017)
